Patent US10016469B2, “Composition comprising antifungal agents for treating vulvovaginitis and vaginosis” (Two Lines Co., Ltd., priority 2015, dated 2018)

Key:
[1] = tested on: G. vaginalis, standard microorganism (ATCC 14018); test: Antibiotic disk diffusion assay; format: cell-based, Gardnerella vaginalis; details: G. vaginalis ATCC 14018, Columbia agar with 5% human red blood cell solution
Procedure: To screen antibiotics to which Gardnerella vaginalis (G. vaginalis) is sensitive, and are resistant to probiotics, antibiotics were tested using a disk diffusion assay.
(§1) Columbia agar containing a 5% human red blood cell solution was used as a media for Gardnerella vaginalis (G. vaginalis, ATCC 14018) and a MRS agar was used as a media for the strains of the present invention (S. denitnficans YH1 and L. crispatus YH2). As the antibiotic disk, a product manufactured by OXIOD was used.
(§2) As described above, augmentin, metronidazole, and clindamycin were applied to a wild-type Gardnerella vaginalis (G. vaginalis) strain obtained from 33 patients suffering from bacterial vaginosis and a standard microorganism (ATCC 14018) and subjected to a test using a disk diffusion assay.

S. denitrificans YH1 = test: Antibiotic disk diffusion assay; format: cell-based; details: S. denitrificans YH1, MRS agar
Procedure: as §1, with “To screen antibiotics to which Gardnerella vaginalis (G. vaginalis) is sensitive, and are resistant to probiotics, antibiotics were tested using a disk diffusion assay. Columbia” for “Columbia”, “([…]1” for “(S. denitnficans YH1”

L. crispatus YH2 = test: Antibiotic disk diffusion assay; format: cell-based, Lactobacillus crispatus; details: L. crispatus YH2, MRS agar
Procedure: as §1, with “To screen antibiotics to which Gardnerella vaginalis (G. vaginalis) is sensitive, and are resistant to probiotics, antibiotics were tested using a disk diffusion assay. Columbia” for “Columbia”, “([…]1” for “(S. denitnficans YH1”

[2] = tested on: wild-type Gardnerella vaginalis (G. vaginalis) strain obtained from 33 patients suffering from bacterial vaginosis; test: Antibiotic disk diffusion assay on clinical isolates; format: cell-based; details: for Diameter of inhibition zone per antibiotic, Average ± SD: average over the G. vaginalis strains of Table 11
Excerpt: as §1, §2

[3] = G. vaginalis strain 14-1, biotype 1
[4] = G. vaginalis strain 14-2, biotype 5
[5] = G. vaginalis strain 14-3, biotype 4
[6] = G. vaginalis strain 14-4, biotype 6
[7] = G. vaginalis strain 14-5, biotype 4
[8] = G. vaginalis strain 14-6, biotype 1
[9] = G. vaginalis strain 14-7, biotype 5
[10] = G. vaginalis strain 14-8, biotype 3
[11] = G. vaginalis strain 14-9, biotype 2
[12] = G. vaginalis strain 14-10, biotype 3
[13] = G. vaginalis strain 14-11, biotype 2
[14] = G. vaginalis strain 14-12, biotype 5
[15] = G. vaginalis strain 14-13, biotype 5
[16] = G. vaginalis strain 14-14, biotype 4
[17] = G. vaginalis strain 14-15, biotype 5
[18] = G. vaginalis strain 14-16, biotype 8
[19] = G. vaginalis strain 14-17, biotype 5
[20] = G. vaginalis strain 14-19, biotype 5
[21] = G. vaginalis strain 14-20, biotype 7
[22] = G. vaginalis strain 14-21, biotype 8
[23] = G. vaginalis strain 14-23, biotype 8
[24] = G. vaginalis strain 14-24, biotype 8
[25] = G. vaginalis strain 14-25, biotype 5
[26] = G. vaginalis strain 14-26, biotype 5
[27] = G. vaginalis strain 14-27, biotype 4
[28] = G. vaginalis strain 14-28, biotype 5
[29] = G. vaginalis strain 14-29, biotype 5
[30] = G. vaginalis strain 14-30, biotype 5
[31] = G. vaginalis strain 14-32, biotype 5
[32] = G. vaginalis strain 14-33, biotype 7
[33] = G. vaginalis strain 14-34, biotype 5
[34] = G. vaginalis strain 14-36, biotype 5
[35] = G. vaginalis strain 14-37, biotype 1

Molecule: Gentamicin
- diameter of inhibition zone [1]: 0 mm
- diameter of inhibition zone (S. denitrificans YH1): 0 mm
- diameter of inhibition zone (L. crispatus YH2): 0 mm

Molecule: CC1(C)S[C@@H]2[C@H](NC(=O)C(C(=O)O)c3ccccc3)C(=O)N2[C@H]1C(=O)O (stereo partly shown) [Carbenicillin]
- diameter of inhibition zone [1]: 40 mm
- diameter of inhibition zone (S. denitrificans YH1): 35 mm
- diameter of inhibition zone (L. crispatus YH2): 35 mm

Molecule: Cc1ncc([N+](=O)[O-])n1CCO [Metronidazole]
- diameter of inhibition zone [1]: 0 mm
- share of wild-type G. vaginalis strains on which no inhibitory effect was shown ([2]; 21 of 33 wild-type strains, metronidazole 50 μg/disc): 64%
- share of Biotype 5 strains completely resistant ([2]; Biotype 5, 14 of 15 strains): 93%
- Diameter of inhibition zone per antibiotic [2, 3]: 27 mm
- Diameter of inhibition zone per antibiotic [2, 4]: 0 mm
- Diameter of inhibition zone per antibiotic [2, 5]: 40 mm
- Diameter of inhibition zone per antibiotic [2, 6]: 35 mm
- Diameter of inhibition zone per antibiotic [2, 7]: 35 mm
- Diameter of inhibition zone per antibiotic [2, 8]: 32 mm
- Diameter of inhibition zone per antibiotic [2, 9]: 0 mm
- Diameter of inhibition zone per antibiotic [2, 10]: 0 mm
- Diameter of inhibition zone per antibiotic [2, 11]: 0 mm
- Diameter of inhibition zone per antibiotic [2, 12]: 0 mm
- Diameter of inhibition zone per antibiotic [2, 13]: 0 mm
- Diameter of inhibition zone per antibiotic [2, 14]: 0 mm
- Diameter of inhibition zone per antibiotic [2, 15]: 0 mm
- Diameter of inhibition zone per antibiotic [2, 16]: 35 mm
- Diameter of inhibition zone per antibiotic [2, 17]: 0 mm
- Diameter of inhibition zone per antibiotic [2, 18]: 25 mm
- Diameter of inhibition zone per antibiotic [2, 19]: 0 mm
- Diameter of inhibition zone per antibiotic [2, 20]: 0 mm
- Diameter of inhibition zone per antibiotic [2, 21]: 0 mm
- Diameter of inhibition zone per antibiotic [2, 22]: 30 mm
- Diameter of inhibition zone per antibiotic [2, 23]: 33 mm
- Diameter of inhibition zone per antibiotic [2, 24]: 20 mm
- Diameter of inhibition zone per antibiotic [2, 25]: 25 mm
- Diameter of inhibition zone per antibiotic [2, 26]: 0 mm
- Diameter of inhibition zone per antibiotic [2, 27]: 0 mm
- Diameter of inhibition zone per antibiotic [2, 28]: 0 mm
- Diameter of inhibition zone per antibiotic [2, 29]: 0 mm
- Diameter of inhibition zone per antibiotic [2, 30]: 0 mm
- Diameter of inhibition zone per antibiotic [2, 31]: 0 mm
- Diameter of inhibition zone per antibiotic [2, 32]: 0 mm
- Diameter of inhibition zone per antibiotic [2, 33]: 0 mm
- Diameter of inhibition zone per antibiotic [2, 34]: 0 mm
- Diameter of inhibition zone per antibiotic [2, 35]: 20 mm
- zone of inhibition at 50 µg/disc ([2]; Gardnerella vaginalis, 12 sensitive wild-type strains, metronidazole 50 μg/disc, read-out: inhibition zones for the remaining 12 strains): 20 to 40 mm

Molecule: CCC[C@@H]1C[C@@H](C(=O)N[C@@H]([C@H]2O[C@H](SC)[C@H](O)[C@@H](O)[C@H]2O)[C@H](C)Cl)N(C)C1 [Clindamycin]
- diameter of inhibition zone [1]: 55 mm
- Diameter of inhibition zone per antibiotic [2, 3]: 50 mm
- Diameter of inhibition zone per antibiotic [2, 4]: 60 mm
- Diameter of inhibition zone per antibiotic [2, 5]: 55 mm
- Diameter of inhibition zone per antibiotic [2, 6]: 50 mm
- Diameter of inhibition zone per antibiotic [2, 7]: 45 mm
- Diameter of inhibition zone per antibiotic [2, 8]: 45 mm
- Diameter of inhibition zone per antibiotic [2, 9]: 60 mm
- Diameter of inhibition zone per antibiotic [2, 10]: 50 mm
- Diameter of inhibition zone per antibiotic [2, 11]: 50 mm
- Diameter of inhibition zone per antibiotic [2, 12]: 55 mm
- Diameter of inhibition zone per antibiotic [2, 13]: 60 mm
- Diameter of inhibition zone per antibiotic [2, 14]: 50 mm
- Diameter of inhibition zone per antibiotic [2, 15]: 55 mm
- Diameter of inhibition zone per antibiotic [2, 16]: 50 mm
- Diameter of inhibition zone per antibiotic [2, 17]: 60 mm
- Diameter of inhibition zone per antibiotic [2, 18]: 60 mm
- Diameter of inhibition zone per antibiotic [2, 19]: 55 mm
- Diameter of inhibition zone per antibiotic [2, 20]: 55 mm
- Diameter of inhibition zone per antibiotic [2, 21]: 50 mm
- Diameter of inhibition zone per antibiotic [2, 22]: 50 mm
- Diameter of inhibition zone per antibiotic [2, 23]: 55 mm
- Diameter of inhibition zone per antibiotic [2, 24]: 50 mm
- Diameter of inhibition zone per antibiotic [2, 25]: 55 mm
- Diameter of inhibition zone per antibiotic [2, 26]: 65 mm
- Diameter of inhibition zone per antibiotic [2, 27]: 55 mm
- Diameter of inhibition zone per antibiotic [2, 28]: 60 mm
- Diameter of inhibition zone per antibiotic [2, 29]: 65 mm
- Diameter of inhibition zone per antibiotic [2, 30]: 65 mm
- Diameter of inhibition zone per antibiotic [2, 31]: 60 mm
- Diameter of inhibition zone per antibiotic [2, 32]: 55 mm
- Diameter of inhibition zone per antibiotic [2, 33]: 60 mm
- Diameter of inhibition zone per antibiotic [2, 34]: 60 mm
- Diameter of inhibition zone per antibiotic [2, 35]: 60 mm
- Diameter of inhibition zone per antibiotic, Average ± SD [2]: 55.45 ± 5.5 mm
- Diameter of inhibition zone per antibiotic, Average ± SD ([2]; listed as clindamycin): 55.45±5.5 mm

Molecule: Cc1onc(-c2ccccc2)c1C(=O)N[C@@H]1C(=O)N2[C@@H]1SC(C)(C)[C@@H]2C(=O)O [Oxacillin]
- diameter of inhibition zone [1]: 0 mm
- diameter of inhibition zone (S. denitrificans YH1): 0 mm
- diameter of inhibition zone (L. crispatus YH2): 0 mm

Molecule: Trimethoprim sulfamethoxazole
- diameter of inhibition zone [1]: 0 mm
- diameter of inhibition zone (S. denitrificans YH1): 0 mm
- diameter of inhibition zone (L. crispatus YH2): 0 mm

Molecule: CO/N=C(\C(=O)N[C@@H]1C(=O)N2C(C(=O)O)=C(COC(C)=O)CS[C@H]12)c1csc(N)n1 [Cefotaxime]
- diameter of inhibition zone [1]: 10 mm
- diameter of inhibition zone (S. denitrificans YH1): 0 mm
- diameter of inhibition zone (L. crispatus YH2): 0 mm

Molecule: Augmentin
- diameter of inhibition zone [1]: 60 mm
- Diameter of inhibition zone per antibiotic [2, 3]: 60 mm
- Diameter of inhibition zone per antibiotic [2, 4]: 33 mm
- Diameter of inhibition zone per antibiotic [2, 5]: 40 mm
- Diameter of inhibition zone per antibiotic [2, 6]: 45 mm
- Diameter of inhibition zone per antibiotic [2, 7]: 40 mm
- Diameter of inhibition zone per antibiotic [2, 8]: 60 mm
- Diameter of inhibition zone per antibiotic [2, 9]: 40 mm
- Diameter of inhibition zone per antibiotic [2, 10]: 50 mm
- Diameter of inhibition zone per antibiotic [2, 11]: 35 mm
- Diameter of inhibition zone per antibiotic [2, 12]: 35 mm
- Diameter of inhibition zone per antibiotic [2, 13]: 60 mm
- Diameter of inhibition zone per antibiotic [2, 14]: 35 mm
- Diameter of inhibition zone per antibiotic [2, 15]: 30 mm
- Diameter of inhibition zone per antibiotic [2, 16]: 40 mm
- Diameter of inhibition zone per antibiotic [2, 17]: 45 mm
- Diameter of inhibition zone per antibiotic [2, 18]: 45 mm
- Diameter of inhibition zone per antibiotic [2, 19]: 35 mm
- Diameter of inhibition zone per antibiotic [2, 20]: 40 mm
- Diameter of inhibition zone per antibiotic [2, 21]: 60 mm
- Diameter of inhibition zone per antibiotic [2, 22]: 50 mm
- Diameter of inhibition zone per antibiotic [2, 23]: 35 mm
- Diameter of inhibition zone per antibiotic [2, 24]: 50 mm
- Diameter of inhibition zone per antibiotic [2, 25]: 60 mm
- Diameter of inhibition zone per antibiotic [2, 26]: 50 mm
- Diameter of inhibition zone per antibiotic [2, 27]: 50 mm
- Diameter of inhibition zone per antibiotic [2, 28]: 30 mm
- Diameter of inhibition zone per antibiotic [2, 29]: 40 mm
- Diameter of inhibition zone per antibiotic [2, 30]: 55 mm
- Diameter of inhibition zone per antibiotic [2, 31]: 50 mm
- Diameter of inhibition zone per antibiotic [2, 32]: 45 mm
- Diameter of inhibition zone per antibiotic [2, 33]: 40 mm
- Diameter of inhibition zone per antibiotic [2, 34]: 40 mm
- Diameter of inhibition zone per antibiotic [2, 35]: 60 mm
- Diameter of inhibition zone per antibiotic, Average ± SD [2]: 44.9±9.5 mm
- resistance of the G. vaginalis strains, in words ([2]; strains of Table 11): no strain was resistant

Molecule: CC1(C)S[C@@H]2[C@H](NC(=O)[C@H](N)c3ccccc3)C(=O)N2[C@H]1C(=O)O [Ampicillin]
- diameter of inhibition zone [1]: 10 mm
- diameter of inhibition zone (S. denitrificans YH1): 0 mm
- diameter of inhibition zone (L. crispatus YH2): 0 mm

Molecule: CC1(C)S[C@@H]2[C@H](NC(=O)Cc3ccccc3)C(=O)N2[C@H]1C(=O)O [Penicillin G]
- diameter of inhibition zone [1]: 10 mm
- diameter of inhibition zone (S. denitrificans YH1): 0 mm
- diameter of inhibition zone (L. crispatus YH2): 0 mm

Molecule: C[C@@H](O)[C@H]1C(=O)N2C(C(=O)O)=C(SCCN=CN)C[C@H]12 [Imipenem]
- diameter of inhibition zone [1]: 40 mm
- diameter of inhibition zone (S. denitrificans YH1): 30 mm
- diameter of inhibition zone (L. crispatus YH2): 25 mm

Molecule: CN[C@H](CC(C)C)C(=O)N[C@H]1C(=O)N[C@@H](CC(N)=O)C(=O)N[C@H]2C(=O)N[C@H]3C(=O)N[C@H](C(=O)N[C@H](C(=O)O)c4cc(O)cc(O)c4-c4cc3ccc4O)[C@H](O)c3ccc(c(Cl)c3)Oc3cc2cc(c3O[C@@H]2O[C@H](CO)[C@@H](O)[C@H](O)[C@H]2O[C@H]2C[C@](C)(N)[C@H](O)[C@H](C)O2)Oc2ccc(cc2Cl)[C@H]1O [Vancomycin]
- diameter of inhibition zone [1]: 40 mm
- diameter of inhibition zone (S. denitrificans YH1): 35 mm
- diameter of inhibition zone (L. crispatus YH2): 35 mm
